Earlier results, collected in patent US6469022B1, “Method, compositions and kits for increasing the oral bioavailability of pharmaceutical agents” (Smith Kline Beecham, Corporation, priority 1997, dated 2002).
Entries after “also recorded” stand apart in the source; their conditions may differ.

What was measured:
[1] = in vivo
[2] = molecular target: P-glycoprotein (Homo sapiens, UniProt P08183)
[3] = WO97/15269, Broder et al
[4] = system: tumour; settings: up to 160 mg/kg/day, Stuffness et al.
[5] = oral administration
[6] = system: metastatic breast cancer; settings: taxane-failure patients with metastatic breast cancer; continuous 96-hour infusion every three weeks
[7] = system: protein isoprenylation
[8] = system: tubulin

Chain of P-glycoprotein (P08183 whole entry): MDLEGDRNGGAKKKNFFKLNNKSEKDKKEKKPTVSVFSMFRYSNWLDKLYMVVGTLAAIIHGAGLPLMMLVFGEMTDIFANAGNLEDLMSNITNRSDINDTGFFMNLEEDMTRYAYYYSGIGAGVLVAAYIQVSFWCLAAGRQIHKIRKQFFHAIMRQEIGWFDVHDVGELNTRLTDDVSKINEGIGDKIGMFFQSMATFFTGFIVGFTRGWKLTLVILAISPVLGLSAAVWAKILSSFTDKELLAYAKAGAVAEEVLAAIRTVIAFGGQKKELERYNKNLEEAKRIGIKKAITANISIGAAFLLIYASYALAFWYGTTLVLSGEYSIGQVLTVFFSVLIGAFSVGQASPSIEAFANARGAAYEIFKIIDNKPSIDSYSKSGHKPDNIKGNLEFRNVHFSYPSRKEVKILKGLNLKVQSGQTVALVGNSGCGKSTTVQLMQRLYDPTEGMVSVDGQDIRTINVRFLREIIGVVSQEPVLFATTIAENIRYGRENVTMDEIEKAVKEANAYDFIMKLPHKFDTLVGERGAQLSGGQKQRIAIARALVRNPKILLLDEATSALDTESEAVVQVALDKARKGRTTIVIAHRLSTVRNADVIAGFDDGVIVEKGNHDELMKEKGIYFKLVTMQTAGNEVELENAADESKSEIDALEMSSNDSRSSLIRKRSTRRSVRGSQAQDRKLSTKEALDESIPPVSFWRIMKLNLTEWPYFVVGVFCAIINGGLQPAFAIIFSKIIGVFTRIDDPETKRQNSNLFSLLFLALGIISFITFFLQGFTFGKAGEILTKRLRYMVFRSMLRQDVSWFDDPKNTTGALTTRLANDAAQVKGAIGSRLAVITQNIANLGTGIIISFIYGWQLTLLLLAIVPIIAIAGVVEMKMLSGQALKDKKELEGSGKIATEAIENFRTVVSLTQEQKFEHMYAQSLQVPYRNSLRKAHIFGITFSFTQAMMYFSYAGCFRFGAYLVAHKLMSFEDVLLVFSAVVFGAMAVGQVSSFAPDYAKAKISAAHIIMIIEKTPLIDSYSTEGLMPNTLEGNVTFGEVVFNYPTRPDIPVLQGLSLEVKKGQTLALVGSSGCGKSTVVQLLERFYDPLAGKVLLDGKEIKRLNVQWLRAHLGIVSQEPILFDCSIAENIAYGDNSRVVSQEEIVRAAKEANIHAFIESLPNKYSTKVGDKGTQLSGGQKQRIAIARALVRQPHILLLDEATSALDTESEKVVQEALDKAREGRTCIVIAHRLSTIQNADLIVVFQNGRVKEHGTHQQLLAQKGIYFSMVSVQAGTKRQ

COc1cc2c(cc1OC)CN(CCc1ccc(NC(=O)c3cccc4c(=O)c5cccc(OC)c5[nH]c34)cc1)CC2 [GF120918, 9,10-dihydro-5-methoxy-9oxo-N-[4-[2-(1,2,3,4-tetrahydro-6,7,-dimethoxy-2-isoquinolinyl)ethyl]phenyl]-4-acridinecarboxamide]
bioavailability across the gut [1]: very poor bioavailability | P-glycoprotein inhibition [2]: P-glycoprotein inhibitor

OCCN(CCO)c1nc(N2CCCCC2)c2nc(N(CCO)CCO)nc(N3CCCCC3)c2n1 [dipyridamole]
oral bioavailability-enhancing activity [3]: less enhancing activity

CC(=O)N1CCN(c2ccc(OCC3COC(Cn4ccnc4)(c4ccc(Cl)cc4Cl)O3)cc2)CC1 (stereo not shown) [ketoconazole]
oral bioavailability-enhancing activity [3]: significant

CC(=O)O[C@H]1C(=O)[C@@]2(C)[C@H]([C@H](OC(=O)c3ccccc3)[C@]3(O)C[C@H](OC(=O)[C@H](O)[C@@H](NC(=O)c4ccccc4)c4ccccc4)C(C)=C1C3(C)C)[C@]1(OC(C)=O)CO[C@@H]1C[C@@H]2O [paclitaxel, 5β,20-epoxy-1,2α,4,7β,10β,13α-hexa-hydroxytax-11-en-9-one 4,10-diacetate 2-benzoate 13-ester with (2R,3S)-N-benzoyl-3-phenylisoserine]
antitumour activity on oral administration [4]: no evidence of antitumour activity | absorbed when administered orally [5]: less than 1% | response rate [6]: 27% | level at which inhibition of protein isoprenylation occurs [7]: about 0.03 μM; also recorded: about 25 ng/ml | level at which inhibition of tubulin disassembly occurs [8]: about 0.1 μM; also recorded: about 85 ng/ml

CC(=O)[C@H]1CC[C@H]2[C@@H]3CCC4=CC(=O)CC[C@]4(C)[C@H]3CC[C@]12C [progesterone]
oral bioavailability-enhancing activity [3]: none
